Results on 26 molecules are retold here after publication PMC10458514, “Structure–Activity Relationship Studies on 6-Chloro-1-phenylbenzazepines Leads to the Identification of a New Dopamine D1 Receptor Antagonist” (Molecules, 2023).

“And” between values parts separate entries of the source, which are not always exact repeats. Equal values may be shown once.

Series [1] deals with T1, D1R (dopamine D1 receptor) (Homo sapiens, UniProt P21728). The conditions noted are these: for Ki D1R: [3H]SCH23390 radioligand, triplicate, na = not active (<50% inhibition in a primary assay when tested at 10 µM); for Selectivity D5/D1: ratio of Ki D5R to Ki D1R.
T1 sequence (P21728 whole entry): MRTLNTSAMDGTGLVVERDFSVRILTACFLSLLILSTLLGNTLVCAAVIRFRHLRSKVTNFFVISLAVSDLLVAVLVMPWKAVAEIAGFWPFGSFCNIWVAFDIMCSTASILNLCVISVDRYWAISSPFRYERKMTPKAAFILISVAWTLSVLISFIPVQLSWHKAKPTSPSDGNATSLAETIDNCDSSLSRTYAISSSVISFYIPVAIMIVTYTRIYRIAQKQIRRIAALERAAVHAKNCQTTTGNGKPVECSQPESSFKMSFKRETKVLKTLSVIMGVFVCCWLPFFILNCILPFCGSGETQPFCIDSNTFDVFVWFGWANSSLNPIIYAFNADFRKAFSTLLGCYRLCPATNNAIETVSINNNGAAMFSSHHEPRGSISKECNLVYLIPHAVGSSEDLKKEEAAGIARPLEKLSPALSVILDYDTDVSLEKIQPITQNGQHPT
For series [2], the target named is D5R (dopamine D5 receptor) (Homo sapiens, UniProt P21918). Nature of the series: biochemical. The conditions noted are these: [3H]SCH23390 radioligand, triplicate, na = not active (<50% inhibition in a primary assay when tested at 10 µM).
Sequence of D5R (dopamine D5 receptor) (P21918 whole entry): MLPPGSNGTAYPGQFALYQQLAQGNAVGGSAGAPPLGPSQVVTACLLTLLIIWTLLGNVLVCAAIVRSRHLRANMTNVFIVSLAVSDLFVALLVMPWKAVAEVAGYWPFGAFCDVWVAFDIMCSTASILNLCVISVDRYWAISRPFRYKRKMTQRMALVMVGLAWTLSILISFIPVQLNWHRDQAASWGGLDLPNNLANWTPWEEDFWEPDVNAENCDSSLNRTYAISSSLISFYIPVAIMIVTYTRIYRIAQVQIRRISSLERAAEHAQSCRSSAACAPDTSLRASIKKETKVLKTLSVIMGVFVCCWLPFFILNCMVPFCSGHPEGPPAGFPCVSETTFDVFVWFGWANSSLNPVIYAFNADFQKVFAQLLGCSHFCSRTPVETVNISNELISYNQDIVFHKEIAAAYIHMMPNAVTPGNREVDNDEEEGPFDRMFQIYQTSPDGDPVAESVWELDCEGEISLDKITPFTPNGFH
For series [3], the target named is T1, D1R (dopamine D1 receptor). Nature of the series: biochemical. The conditions noted are these: [3H]SCH23390 radioligand, triplicate, na = not active (<50% inhibition in a primary assay when tested at 10 µM).

On to `COc1ccc2c(c1Cl)CCNCC2c1ccccc1` (stereo not shown) [Compound 10a, 6-chloro-7-methoxy-1-phenyl-2,3,4,5-tetrahydro-1H-benzo[d]azepine], for which the melting point (as a rule, the temperature, or range, at which the solid turns liquid) lay in the range of 156.4 to 158 °C.
Still for that read-out and setting: with `COc1ccc2c(c1Cl)CCNCC2c1cccc(C)c1` (stereo not shown) [Compound 10b, 6-chloro-7-methoxy-1-(m-tolyl)-2,3,4,5-tetrahydro-1H-benzo[d]azepine] the figure was 180.4 to 181.8 °C; with `COc1ccc(C2CNCCc3c2ccc(OC)c3Cl)cc1` (stereo not shown) [Compound 10c, 6-chloro-7-methoxy-1-(4-methoxyphenyl)-2,3,4,5-tetrahydro-1H-benzo[d]azepine], 151.3 to 152.7 °C.
Molecule `Oc1ccc2c(c1Cl)CCNCC2c1ccccc1` (stereo not shown) [Compound 11a, 6-chloro-1-phenyl-2,3,4,5-tetrahydro-1H-benzo[d]azepin-7-ol] displayed a melting point of 134.6 to 135.8 °C. The “Ki D1R” value in series [1] was “no D1R affinity”. In series [2], the affinity corresponds to a Ki of 470 nM.
`Cc1cccc(C2CNCCc3c2ccc(O)c3Cl)c1` (stereo not shown) [Compound 11b, 6-chloro-1-(m-tolyl)-2,3,4,5-tetrahydro-1H-benzo[d]azepin-7-ol] came in with a melting point of 122.3 to 124.2 °C. Besides, the “Ki D1R” value in series [1] is listed as “no affinity”.
As for `Oc1ccc(C2CNCCc3c2ccc(O)c3Cl)cc1` (stereo not shown) [Compound 11d, 6-chloro-1-(4-hydroxyphenyl)-2,3,4,5-tetrahydro-1H-benzo[d]azepin-7-ol], the melting point was in the range of 135.8 to 136.9 °C. Also, the “Ki D1R” value in series [1] is reported as “did not bind to D1R”.
For the molecule `C=CCN1CCc2c(ccc(OC)c2Cl)C(c2cccc(C)c2)C1` (stereo not shown) [Compound 12b, 3-allyl-6-chloro-7-methoxy-1-(m-tolyl)-2,3,4,5-tetrahydro-1H-benzo[d]azepine], the melting point fell in the range of 172.1 to 173.8 °C.
Same read-out and setting: the same measure for `C=CCN1CCc2c(ccc(OC)c2Cl)C(c2ccc(OC)cc2)C1` (stereo not shown) [Compound 12c, 3-allyl-6-chloro-7-methoxy-1-(4-methoxyphenyl)-2,3,4,5-tetrahydro-1H-benzo[d]azepine]: 155.4 to 157.1 °C; for `COc1ccc2c(c1Cl)CCN(C)CC2c1cccc(C)c1` (stereo not shown) [Compound 13b, 6-chloro-7-methoxy-3-methyl-1-(m-tolyl)-2,3,4,5-tetrahydro-1H-benzo[d]azepine]: 174.5 to 176.1 °C; for `COc1ccc(C2CN(C)CCc3c2ccc(OC)c3Cl)cc1` (stereo not shown) [Compound 13c, 6-chloro-7-methoxy-1-(4-methoxyphenyl)-3-methyl-2,3,4,5-tetrahydro-1H-benzo[d]azepine]: 155.4 to 157.1 °C.
Regarding `C=CCN1CCc2c(ccc(O)c2Cl)C(c2ccccc2)C1` (stereo not shown) [Compound 14a], the “Selectivity D5/D1” value in series [1] is 2.9. The values for the Ki in series [3] and in series [2] were 102 ± 5.2 nM and 297 ± 19.3 nM, respectively.
The molecule `C=CCN1CCc2c(ccc(O)c2Cl)C(c2cccc(C)c2)C1` (stereo not shown) [Compound 14b, 3-allyl-6-chloro-1-(m-tolyl)-2,3,4,5-tetrahydro-1H-benzo[d]azepin-7-ol] displayed a melting point of 151.3 to 152.7 °C. For the same molecule, the “Selectivity D5/D1” value in series [1] worked out at 2.6. For the same molecule, the affinity in series [3], expressed as Ki, was 281 nM. The inhibition constant Ki (usually a measure of affinity in units of concentration, obtained from inhibition or displacement) in series [2] worked out at 741 ± 12.5 nM.
As to `C=CCN1CCc2c(ccc(O)c2Cl)C(c2ccc(O)cc2)C1` (stereo not shown) [Compound 14d, 3-allyl-6-chloro-1-(4-hydroxyphenyl)-2,3,4,5-tetrahydro-1H-benzo[d]azepin-7-ol], the melting point fell in the range of 132.5 to 134.1 °C. For the same molecule, the “Ki D1R” value in series [1] is recorded as “no affinity”.
For the molecule `Cc1cccc(C2CN(C)CCc3c2ccc(O)c3Cl)c1` (stereo not shown) [Compound 15b, 6-chloro-3-methyl-1-(m-tolyl)-2,3,4,5-tetrahydro-1H-benzo[d]azepin-7-ol], the melting point was in the range of 142.6 to 144 °C. In addition, in series [1], the “Selectivity D5/D1” value worked out at 2.1. In addition, the Ki in series [3] is 78 nM and 77.9 nM. The molecule also came in with a Ki in series [2] of 165 ± 4.9 nM.
In the case of `CN1CCc2c(ccc(O)c2Cl)C(c2ccc(O)cc2)C1` (stereo not shown) [Compound 15d], the “Selectivity D5/D1” value in series [1] was found to be 2.6. Besides, the Ki in series [3] came to 161 nM; in series [2] it was 413 ± 9.8 nM.
Turning to `CN1CCc2c(cc([N+](=O)[O-])c(O)c2Cl)C(c2ccccc2)C1` (stereo not shown) [Compound 16a, 6-chloro-3-methyl-8-nitro-1-phenyl-2,3,4,5-tetrahydro-1H-benzo[d]azepin-7-ol], the melting point lay within 198.7 to 200 °C. In addition, the “Ki D1R” value in series [1] was “no affinity”.
`Cc1cccc(C2CN(C)CCc3c2cc([N+](=O)[O-])c(O)c3Cl)c1` (stereo not shown) [Compound 16b, 6-chloro-3-methyl-8-nitro-1-(m-tolyl)-2,3,4,5-tetrahydro-1H-benzo[d]azepin-7-ol] had a melting point of 210.4 to 212.6 °C. In series [3], this molecule showed a Ki of 4350 nM.
In the case of `CC(=O)Nc1cc2c(c(Cl)c1O)CCN(C)CC2c1ccccc1` (stereo not shown) [Compound 18a, N-(9-chloro-8-hydroxy-3-methyl-5-phenyl-2,3,4,5-tetrahydro-1H-benzo[d]azepin-7-yl)acetamide], the melting point was in the range of 154.4 to 156.2 °C.
The molecule `CC(=O)Nc1cc2c(c(Cl)c1O)CCN(C)CC2c1cccc(C)c1` (stereo not shown) [Compound 18b, N-(9-chloro-8-hydroxy-3-methyl-5-(m-tolyl)-2,3,4,5-tetrahydro-1H-benzo[d]azepin-7-yl)acetamide] had a melting point of 151.6 to 152.8 °C. Besides, the inhibitory constant (Ki) in series [3] was 1360 ± 14 nM.
`CCCC(=O)Nc1cc2c(c(Cl)c1O)CCN(C)CC2c1ccccc1` (stereo not shown) [Compound 19a, N-(9-chloro-8-hydroxy-3-methyl-5-phenyl-2,3,4,5-tetrahydro-1H-benzo[d]azepin-7-yl)butyramide] registered a melting point of 148.7 to 150.1 °C. In series [3], this molecule had an inhibition constant Ki of 1970 ± 41.4 nM.
In the same order, the values of `CC(C)C(=O)Nc1cc2c(c(Cl)c1O)CCN(C)CC2c1ccccc1` (stereo not shown) [Compound 20a, N-(9-chloro-8-hydroxy-3-methyl-5-phenyl-2,3,4,5-tetrahydro-1H-benzo[d]azepin-7-yl)isobutyramide] are 144.6 to 145.9 °C and 2940 ± 36.2 nM.
In the same order, the values of `C=CC(=O)Nc1cc2c(c(Cl)c1O)CCN(C)CC2c1ccccc1` (stereo not shown) [Compound 21a, N-(9-chloro-8-hydroxy-3-methyl-5-phenyl-2,3,4,5-tetrahydro-1H-benzo[d]azepin-7-yl)acrylamide] are 161.4 to 163.1 °C and 1500 ± 18.9 nM.
Turning to `C=CC(=O)Nc1cc2c(c(Cl)c1O)CCN(C)CC2c1cccc(C)c1` (stereo not shown) [Compound 21b], the Ki in series [3] was found to be 4980 ± 61.3 nM.
In the case of `CN1CCc2c(cc(NC(N)=O)c(O)c2Cl)C(c2ccccc2)C1` (stereo not shown) [Compound 23a, 1-(9-chloro-8-hydroxy-3-methyl-5-phenyl-2,3,4,5-tetrahydro-1H-benzo[d]azepin-7-yl)urea], the melting point was in the range of 141 to 142.1 °C. Besides, the affinity in series [3] corresponds to a Ki of 1762 ± 17.6 nM.
For the molecule `Cc1cccc(C2CN(C)CCc3c2cc(NC(N)=O)c(O)c3Cl)c1` (stereo not shown) [Compound 23b, 1-(9-chloro-8-hydroxy-3-methyl-5-(m-tolyl)-2,3,4,5-tetrahydro-1H-benzo[d]azepin-7-yl)urea], the melting point lay within 184.6 to 186.1 °C.
`O=[N+]([O-])c1cc2c(c(Cl)c1O)CCNCC2c1ccccc1` (stereo not shown) [Compound 24a, 6-chloro-8-nitro-1-phenyl-2,3,4,5-tetrahydro-1H-benzo[d]azepin-7-ol]: the melting point is 201.4 to 202.8 °C. In series [1], the “Ki D1R” value is “no affinity”.
